Test results taken from US20240043473A1, “NOOTROPIC PEPTIDES FOR TREATING LYSOSOMAL STORAGE DISEASES” (Phoenix Nest Inc., priority 2021, published 2024).
“Also recorded” adds a separate entry of the source. No end group written: not given here.

Tests used:
[1] = system: CA1 pyramidal neurons in acute hippocampal slices from Hgsnat-Geo and Hgsnat^P304L mice; experiment: Miniature excitatory postsynaptic currents (mEPSC), whole cell voltage clamp in acute hippocampal slices; type: cell-based, mouse; conditions: for mEPSC amplitude and frequency deficits: Hgsnat-Geo and Hgsnat^P311L (P304L) slices
Method: Models and developmental time points: Hippocampal slices from Hgsnat-Geo and Hgsnat^P304L mice; P14-20 and P45-60.
(§1) Method: Whole cell voltage clamp electrophysiology recordings (miniature synaptic currents) were conducted on CA1 pyramidal neurons in acute hippocampal slices.
(§2) Acute hippocampal slices were prepared as follows. Briefly, animals were anaesthetized deeply with isoflurane and decapitated. The brain was dissected carefully and transferred rapidly into an ice-cold (0-4° C.) solution containing the following (in mM): 250 sucrose, 2 KCl, 1.25 NaH2PO4, 26 NaHCO3, 7 MgSO4, 0.5 CaCl2 and 10 glucose, pH 7.4. The solution was oxygenated continuously with 95% O2 and 5% CO2, 330-340 mOsm/L. Transverse hippocampal slices (thickness, 300 μm) were cut using a vibratome (VT1000S; Leica Microsystems), transferred to a bath at room temperature (23° C.) with standard ACSF at pH 7.4 containing the following (in mM): 126 NaCl, 3 KCl, 1 NaH2PO^4, 25 NaHCO3, 2 MgSO4, 2 CaCl2), 10 glucose, continuously saturated with 95% 02 and 5% CO2 and allowed to recover for 1 h. During the experiments, slices were transferred to the recording chamber at physiological temperature (30-33° C.) continuously perfused with standard ACSF, as described above, at 2 ml/min. Pyramidal CA1 neurons from the hippocampus were identified visually using a 40× water immersion objective. Whole-cell patch-clamp recordings were obtained from single cells in voltage- or current-clamp mode and only 1 cell per slice was recorded to enable post-hoc identification and immunohistochemical processing. Recording pipettes (4-6 MΩ) were filled with a K-gluconate based solution for voltage-clamp recordings (in mM): 130 K-gluconate, 10 KCl, 5 diNa-phosphocreatine. 10 HEPES, 2.5 MgCl2, 0.5CaCl2,1 EGTA, 3 ATP-Tris, 0.4 GTP-Li, 0.3% biocytin, pH 7.2-7.4, 280-290 mOsm/L.
After obtaining whole cell configuration, passive membrane properties were monitored for 5 min and current clamp recordings were done to measure action potential characteristics. […]. Cells were voltage clamped at −70 mV for mEPSCs recording and then held at 0 mV (calculated from the reversal potential of Cl) for mIPSCs recording. Data acquisition (filtered at 2-3 kHz and digitized at 15 kHz; Digidata 1440A, Molecular Devices, CA, USA) was performed using the Axopatch 200B amplifier and the Clampex 10.6 software (Molecular Devices). Both mEPSCs and mIPSCs were recorded for 7 min and a running template on a stable baseline (minimum of 30 events) was used for the analysis of miniature events on MiniAnalysis. Clampfit 10.2 software was used for analysis of action potential characteristics and other passive membrane properties.
This example tested AVP6's effect on synaptic signaling in acute hippocampal slices of MPS IIIC (both Hgsnat^Geo and Hgsnat^P304L) mice. […]

[2] = system: CA1 pyramidal neurons in acute hippocampal slices from Hgsnat^Geo mice; experiment: Miniature inhibitory postsynaptic currents (mIPSC), whole cell voltage clamp in acute hippocampal slices; type: cell-based, mouse; conditions: 10 μM bath application, P14-20
Method: as §1
Acute hippocampal slices were prepared as follows. Briefly, animals were anaesthetized deeply with isoflurane and decapitated. The brain was dissected carefully and transferred rapidly into an ice-cold (0-4° C.) solution containing the following (in mM): 250 sucrose, 2 KCl, 1.25 NaH2PO4, 26 NaHCO3, 7 MgSO4, 0.5 CaCl2 and 10 glucose, pH 7.4. […] Whole-cell patch-clamp recordings were obtained from single cells in voltage- or current-clamp mode and only 1 cell per slice was recorded to enable post-hoc identification and immunohistochemical processing. […]
After obtaining whole cell configuration, passive membrane properties were monitored for 5 min and current clamp recordings were done to measure action potential characteristics. […] Cells were voltage clamped at −70 mV for mEPSCs recording and then held at 0 mV (calculated from the reversal potential of Cl) for mIPSCs recording. […] Both mEPSCs and mIPSCs were recorded for 7 min and a running template on a stable baseline (minimum of 30 events) was used for the analysis of miniature events on MiniAnalysis. […]

[3] = system: hippocampus CA1 pyramidal cells in hippocampal slices from Hgsnat^Geo and Hgsnat^P311L mice; experiment: Evoked synaptic currents (AMPA EPSCs, NMDA EPSCs, paired pulse) by stimulating Schaffer collaterals in hippocampal slices; type: cell-based, mouse
Method: Model and Developmental time points: Hippocampal slices from Hgsnat^Geo and Hgsnat^P311L mice; P14-20.
Method: Synaptic currents (composite glutamatergic EPSCs, AMPA EPSCs and NMDA EPSCs) were evoked by stimulating Schaffer collaterals and recordings were conducted from the hippocampus CA1 pyramidal cells in hippocampal slices from Hgsnat^Geo and Hgsnat^P311L mice. Paired pulse stimulation protocol with increasing stimulus intervals was used to identify the locus of deficit.
as §2
We further studied evoked glutamatergic EPSCs in CA1 pyramidal neurons at P14-20 by stimulating Schaffer Collateral afferents. […] The effect is aggravated at higher IPI, as both the readily releasable and reserve pools of synaptic vesicles get progressively emptied.

[4] = system: Hgsnat^P304L and Hgsnat-Geo MPS IIIC mice; experiment: Elevated Plus Maze test; type: in vivo, mouse
Method: Method: Elevated plus maze that measures a natural fear of heights reflex of animals. AVP6 was administered intranasally at 50 μg/kg (5 μl/nostril) to the animals 17 h before the experiment.
The elevated plus-maze test was performed as follows. Each mouse was placed in the center of the elevated plus maze and allowed to freely explore undisturbed for 10 min. After each testing, the mouse was returned to the home cage and the arena was cleaned with 70% ethanol before the commencement of the next test. Analysis of the behavioral activity (percentage of time spent in the center zone, closed arms, and open arms; as well as the number of open arm entries) was done by the Smart v3.0 software.
Starting from 3 weeks of age, WT C57B16 and homozygous Hgsnat^P304L male and female mice were randomly divided in treatment and control groups (6-13 mice/sex/genotype/treatment; see Table I). The control group was daily administered with saline (5 μL to each nostril), while for the treatment group, saline was supplemented with 125 µg of AVP6/mL, which would result in a dose of approximately 50 μg/kg BW/day. The peptide formulation was prepared once, aliquoted and kept frozen at −80° C. until use. At 4 months, all mice were studied by EPM, OF, YM and NOR behavioral tests. Administration of the drug or saline was continued through the days on which the assays were conducted. Then approximately at 5 months 4-5 mice in each group were sacrificed. Their blood plasma was collected, and their tissues were either snap-frozen or fixed and cryopreserved to analyze CNS pathology as described above. For the remaining mice, treatment was continued and their behaviour was studied again at the age of 6 months using OF. NOR and YM tests. Starting from the age of 8 months, Hgsnat^P304L treated and untreated mice were daily studied for the signs of urinary retention. When such signs were detected, the mice were studied by ERG and sacrificed within 1-2 days. Finally, the remaining treated and untreated WT mice were studied by ERG and sacrificed at the end of the study, approximately at 10 months of age.

[5] = Preliminary studies of activity and stability of the acetylated peptide
[6] = mouse, in vivo
Method: WT C57B16 4-month-old male mouse was dosed intranasally with 10 μl of 50 mM AVP6 in saline (5 μl/nostril). One hour after dosing, the mouse was anesthetized with sodium pentobarbital, and 500 μl of blood collected by cardiac puncture. Mouse was then sacrificed by cranial dislodgement and its brain and visceral organs extracted. Tissues and blood plasma were homogenized in acetonitrile (1:4, tissue/solvent ratio). The extracts were spiked with heavy isotope-labelled (Phe U-^13C9; U-^15N) AVP6 peptide as an internal standard, and analyzed by targeted LC-MS/MS, using parallel reaction monitoring on Orbitrap Exploris 480 instrument.
Peptide pharmaco-kinetics was determined by evaluation of AVP6 levels in CNS, blood and peripheral tissues at different time points (1-48 h) after intranasal delivery in the WT mice. The entire mouse brain was cut in four sections, rostral to caudal and assessed for biodistribution of AVP6 by targeted LC-MS/MS using parallel reaction monitoring. For quantification, samples were spiked with isotopically labeled (Phe U-^13C9; U-^15N) AVP6 peptide as an internal standard. Peptide levels were also measured in peripheral (liver, kidney, spleen) tissues and in blood to provide insights into peptide biodistribution and degradation rates.

[7] = 10 μM bath application, P14-20, Hgsnat^P311L (P304L) slices

With “AVP6: N-terminally acetylated Semax, a nootropic peptide having the amino acid sequence of MEHFPGP (SEQ ID NO:1) (Ac-MEHFPGP)” the “mEPSC amplitude and frequency deficits” value ([1]; 10 μM bath application, P14-20) was “recovered deficits in mEPSC amplitude and frequency; also recorded: deficit is rescued”, the “mEPSC amplitude and frequency deficits” value ([1]; 10 μM bath application, P45-60) was “recovered deficits in mEPSC amplitude and frequency; also recorded: deficit is rescued” and the “mEPSC amplitude and frequency in WT animals” value ([1]; 10 μM bath application, P45-60, WT slices) was “trend for an increase”. For the same substance, the “reduced amplitude and frequency of mEPSC” value ([1]; acute bath application, MPSIIIC mouse hippocampal slices (Example 1, FIG. 1)) was “significant restoration”, the “mIPSC amplitude and frequency deficits” value [2] was “did not recover deficits in mIPSC amplitude and frequency; also recorded: did not increase frequencies or amplitudes of mIPSC; also recorded: does not increase” and the “evoked AMPA current deficits” value [3, 7] was “partially recovered deficits in AMPA currents; also recorded: not in AVP6-treated brain slices”. The “evoked NMDA current deficits” value [3, 7] was “not in AVP6-treated brain slices”, the “paired pulse (PPF/PPR) deficits at lower inter-pulse intervals” value ([3]; 10 μM, IPI 100-200 ms Hgsnat^Geo, 100-300 ms Hgsnat^P311L) was “significantly recovered PPF deficits; also recorded: partially rescued deficits in the paired pulse stimulation; also recorded: is restored by treatment with AVP6” and the “paired pulse (PPF) deficits at higher inter-pulse intervals” value ([3]; 10 μM, IPI 400 and 500 ms) was “not at higher (400 and 500 ms) IPI”. The “recording lost (suggesting neurotoxicity)” value ([3]; 50 μM) was 5 of 11, the “PPF deficits at 100, 200, 300 and 400 ms IPI” value ([3]; 50 μM, Hgsnat^P304L slices) was “PPF deficits were rescued” and the “reduced fear (open arm entries, time in open arms), Elevated Plus Maze” value ([4]; chronic daily intranasal 50 μg/kg BW from 3 weeks, Hgsnat^P304L mice at 4 months) was “showed no difference from their WT counterparts; also recorded: show the rescue of all above deficits”. For the same substance, the “Elevated Plus Maze parameters in WT mice” value ([4]; chronic daily treatment, WT mice at 4 months) was “no effect of the drug was detected in the WT mice”, the “reduced fear/anxiety, Elevated Plus Maze” value ([4]; single intranasal 50 μg/kg 17 h before test, Hgsnat-Geo mice, 6 months) was “showed a behavior similar to their WT counterparts; also recorded: also rescues reduced anxiety in EPM test” and the “reduced fear (time spent in open arms, number of open arm entries), Elevated Plus Maze” value ([4]; single intranasal 50 μg/kg 17 h before test, Hgsnat^P311L (P304L) mice, 4 months) was “rescues reduced fear; also recorded: showed a behavior similar to their WT counterparts; also recorded: Both parameters are normalized”. The “effect of N-terminal acetylation on activity and stability of the peptide” value [5] was “increase the activity and stability of the peptide” and the “time the peptide level in the brain remained above the estimated acting concentration” value [6] was 17 h.
